Experimental data as given in patent US20200138921A1, “METHODS OF PREVENTING AND TREATING DISEASES CHARACTERIZED BY SYNAPTIC DYSFUNCTION AND NEURODEGENERATION INCLUDING ALZHEIMER'S DISEASE” (The Trustees of Columbia University in the City of New York, priority 2017, published 2020).

Assays:
Ube3A [1] = assay: Ube3A protein degradation in B35 cells (cycloheximide chase); type: cell-based, rat; conditions: CHX and oAβ for 4, 8 and 16 hours
Procedure: FIG. 5A is a graph showing the quantification of Western blots of the levels of Ube3A and GAPDH (as house-keeping protein) of B35 cells treated with cycloheximide (CHX) or CHX and oAβ for 4, 8 and 16 hours. […] Graphs represent mean values and standard deviation. Significance determined by one-way ANOVA followed by Tukey Post Hoc multiple comparisons.

[2] = tested on: primary hippocampal neurons; type: cell-based, rat; conditions: neurons 21 DIV, oAβ for 24 hours (data not shown)
Ube3A [3] = assay: Ube3A protein in hippocampus of J20 AD mice; type: in vivo; conditions: single bilateral TOP injection 275 μg at 9-10 months, measured at 11-12 months
Description: The J20 transgenic mouse line also used in the studies expresses a mutated human APP (hAPP: K670N/M671L and V717F) under the control of the platelet-derived growth factor promoter (Mucke et al. 2000). These mice have deficits in learning and memory, inhibition of long-term potentiation, loss of dendritic spines, profuse amyloid plaques, and increased phosphorylation of the tau protein. These mice also have increased RhoA-GTP activity and progressive decrease in spinal density when treated with oligomeric Aβ. See Pozueta et al. 2013.
Whole frozen mouse hippocampi, human brain specimens, and cultured cells were homogenized in RIPA buffer (ThermoFisher) supplemented with protease and phosphatase inhibitor cocktail (ThermoFisher), using a Teflon dounce homogenizer and centrifuged at 14,000 rpm for 10 minutes at 4° C. Supernatants were collected, normalized by BCA assay (ThermoFisher), and prepared for loading using sample buffer (SB) 4× (ThermoFisher) and dithiothreitol (DTT) 10× (ThermoFisher).
(§1) Controls were wild-type mice and J20 mice injected with PBS.

J20 mice = assay: Long-term potentiation recordings, hippocampal slices of J20 mice; type: in vivo; conditions: single TOP injection 275 μg, vs PBS treated J20 mice
Procedure: Long-term potentiation (LTP) recordings were performed by positioning glass electrodes filled with artificial cerebrospinal fluid (ACSF) in the CA1 stratum radiatum to record Field Excitatory Post-Synaptic Potentials (fEPSPs) evoked by local stimulation (0.1 ms) of Schaffer collateral fibers using a bipolar concentric electrode placed laterally to the recoding electrode (approximately 150 μm). Following a steady baseline of 15 minutes, potentiation was induced with three theta-burst stimulations (TBS; 15 second interval), each one involving a single train of 10 bursts at 5 Hz, where each burst was composed of four pulses at 100 Hz (strong stimulation). The fEPSP slopes following tetanic stimulation were normalized to the average of the slopes of the fEPSPs acquired during the baseline.
as §1

oAβ: synthetic soluble oligomeric Aβ1-42
degradation rate of the Ube3A protein (Ube3A [1]): significantly increased
cell death [2]: No cell death

CC[C@@]1(O)C(=O)OCc2c1cc1n(c2=O)Cc2cc3c(CN(C)C)c(O)ccc3nc2-1 [TOP, topotecan]
levels of Ube3A in the hippocampus (Ube3A [3]): increased
LTP in hippocampal slices (J20 mice): Enhancement
